Entries after “also recorded” stand apart in the source; their conditions may differ.
Columns and labels:
[1] = system: CHO cells transfected with ABA-inducible luciferase constructs; test: ABA-inducible luciferase assay; assay type: cell-based; conditions: for stability in cell culture: 12 or 24 h, luciferase assay
Description: The cellular stability of ABA-DMNB was explored further using a more sensitive and quantitative luciferase assay system, which employs an inducible luciferase construct (FIG. 21A). CHO cells were transfected with the ABA-inducible luciferase constructs for 24 hours and then 10 μM of ABA-DMNB was added and incubated in dark for 12 or 24 hours. Cells were then harvested and analyzed by using the luciferase assay.
Cell culture and transfection: CHO cells and HEK 293T EGFP reporter cells (provided by Dr. Gerald R. Crabtree) were cultured in Dulbecco's modified Eagle's medium (DMEM; GIBCO, Life Technologies, Carlsbad, Calif.) with 10% FBS (Atlanta Biologicals, Inc., Norcross, Ga.), 1×GlutaMAX (GIBCO, Life Technologies, Carlsbad, Calif.), and 1× penicillin/streptomycin (Pen/Strep; GIBCO, Life Technologies, Carlsbad, Calif.). 15,000-50,000 ells were plated in a 24-well or 8-well plate for 24 hours before transfection. DNA constructs (0.1 μg-0.5 μg) were added to 50× (v/w) Opti-MEM (GIBCO, Life Technologies, Carlsbad, Calif.), and then 3× (v/w) PEI (Polysciences, Inc., Warrington, Pa.) was mixed with the DNA. The mixture was incubated for 20 minutes at room temperature before adding it to cell cultures. The cells were grown for one day after transfection before experiments were performed.
Luciferase assay: Cells from 24-well plates were washed with PBS and lysed with Reporter lysis buffer (100 μL; Promega Corp., Madison, Wis.) by incubation and gentle shaking at room temperature for 10 minutes after a freeze/thaw cycle. Cell lysates were centrifuged at 15,000 rpm in an Eppendorf 5424 Centrifuge with lysate used for the luciferase assay (25 μL). Luciferase assay reagent (100 μL, 5 mg luciferin (Gold Biotechnology, Inc., St. Louis, Mo.) and coenzyme A (7 mg; Sigma-Aldrich, St. Louis, Mo.) in Luciferase Assay Buffer (33 mL, 20 mM tricine, 1.07 mM (MgCO3)4Mg(OH)2.5 H2O, 2.67 mM MgSO4, 0.1 mM EDTA, 33.3 mM dithiothreitol, and 0.53 mM ATP in water) was added to lysates. Luciferase assay reagent was added through the auto-injector of a GLOMAX-Multi Detection System (Promega Corp., Madison, Wis.), and the signal was detected by the instrument with a 1.5 s delay and 0.5 s integration time. All experiments were conducted in triplicate.

[2] = Photo-cleavage (uncaging) of caged ABA (HPLC); assay type: physicochemical; conditions: for photo-cleavage by 365 nm light / photo-cleavage by 405 nm light: 10 μM in DMSO; for formation of 2-trans ABA isomer on irradiation: 365 nm photo-cleavage condition
Description: HPLC analysis: Reversed-phase HPLC was performed on an ACCLAIM 120 (4.6×100 mm) C18 column (Thermo Fisher Scientific, Waltham, Mass.) with an ULTIMATE 3000 pump system, including a Variable Wavelength Detector 3100, Degasser 1210, and Autosampler SPS 3000 (Thermo Fisher Scientific, Waltham, Mass.). A mixture of water and acetonitrile containing 0.1% TFA was used as the eluent. Absorbance at 250 nm was used to monitor the elution of the molecules. The method used an increase in acetonitrile from 5% to 95% over 15 minutes to elute the molecules at a flow rate of 0.7 mL/min. The peaks for the molecules were integrated by using Chromeleon software (Thermo Fisher Scientific, Waltham, Mass.). The molar absorptivity of both free and caged ABA at 250 nm were measured, which was used to calculate the concentration of each species from the intensity of absorbance at 250 nm. The relative concentration of each compound was used to calculate the percent concentration of free ABA relative to the concentration of total ABA species (both caged and uncaged).
Photo-irradiation: Irradiation at 365 nm was performed with an Axio Observer (Carl Zeiss AG, Oberkochen, Germany) microscope with an HBO103 W/2 mercury arc lamp (Carl Zeiss AG, Oberkochen, Germany). Irradiation was performed by using a DAPI filter (Carl Zeiss AG, Oberkochen, Germany), set with peak excitation at 365 nm (power density: 23 mW cm^2) and a spectral width of 50 nm. No objective lens was used for whole-well irradiation, which created an area of illumination that nearly completely covered one well of a 24-well plate. Light was transmitted through the bottom of the well of polystyrene plate. Irradiation at 405 nm was performed by using an adjustable focus violet purple laser pointer (LazerPoint SKU 0733579), with an excitation wavelength of 405 nm and 1000 mW intensity positioned 8 cm above the bottom of either a 96-well or 24-well plate and irradiated through the polystyrene lid. All samples for HPLC analysis were irradiated in DMSO to prevent evaporation of solvent and changes in sample concentration. Irradiation of cell cultures was performed in 24-well plates containing culture medium (500 μL).

[3] = system: myr-ABI and EGFP-PYL-Tiam1 in CHO cells; test: Light-induced ruffling via Tiam1 membrane localization / Rac1 signaling (fixed cells); assay type: cell-based; conditions: for percentage of cells displaying ruffling: compared with ABA-DMNB without irradiation or no drug
Description: Next, we examined the induction of ruffle formation through the activation of the Rac1 signaling pathway in order to determine if the light-activated ABA system can be used to regulate a complex biological process. The GTP exchange factor, Tiam1, when presents at the cell membrane, activates Rac1 to initiate a signaling pathway that leads to cytoskeletal remodeling that forms filopodia and/or lamellipodia. To activate Rac1 signaling and induce membrane ruffling, light and ABA-DMNB were used to control membrane localization of Tiam1 (FIG. 23A). A construct encoding a membrane localized ABI (myr-ABI) and one expressing a constitutively active Tiam1 fused to EGFP and PYL were employed for this purpose (FIG. 23A). Following the transfection of CHO cells with both plasmids for 24 hours, 10 μM of ABA-DMNB was added and the treated cell culture was irradiated with 365 nm light from a fluorescent microscope. Cells were then fixed on slides and analyzed under a fluorescence microscope. […] Some background ruffling when overexpressing constitutively active Tiam1 was observed even when no drug was added.
Slide preparation: Cells were grown on glass coverslips in 24-well plates. The coverslips were washed with phosphate-buffered saline (PBS) and fixed with 4% paraformaldehyde (PFA, 300 μL, prepared in PBS) at room temperature for 20 min. The cells were then washed twice with PBS and incubated with 1×DAPI in the dark at the room temperature for 5 min. After a final wash with PBS, the coverslips were mounted on a glass slide with VECTASHIELD (Vector Laboratories, Inc., Burlingame, Calif.) mounting media and allowed to stand for two hours in the dark before imaging.
Statistical analysis of cell population: Cell were categorized as displaying nuclear export of EGFP when the fluorescent intensity of the nucleus was less than 60% of the intensity of the cytoplasm. […] Cells were counted from three separate experiments, with N>50 for each experiment.

| Compound | stability in cell culture ([1]; 10 μM, dark) | luciferase expression ([1]; 10 μM, dark, 12 hours) | luciferase expression ([1]; 10 μM, dark, 24 hours) | irradiation time after which free ABA is regenerated ([2]; 10 μM and 100 μM, 365 nm UV light) | photo-cleavage by 365 nm light [2] | photo-cleavage by 405 nm light [2] | irradiation time to regenerate free ABA ([2]; 100 μM, 365 nm light) | formation of 2-trans ABA isomer on irradiation [2] | percentage of cells displaying ruffling ([3]; 10 μM, 365 nm irradiation) | luciferase expression ([1]; not irradiated, twelve hours after addition) | percentage of cells displaying ruffling ([3]; not irradiated) | irradiation time to complete cleavage ([2]; 405 nm light) | formation of isomerized ABA on irradiation ([2]; 405 nm uncaging) | Rac1 signaling activation/ruffle formation ([3]; 10 μM, 405 nm light irradiation, fixed CHO cells) |
| --- | --- | --- | --- | --- | --- | --- | --- | --- | --- | --- | --- | --- | --- | --- |
| COc1cc(COC(=O)/C=C(C)\C=C\[C@@]2(O)C(C)=CC(=O)CC2(C)C)c([N+](=O)[O-])cc1OC [ABA-DMNB] | relatively stable under the cell culture condition | very little luciferase expression | only a minimal level of luciferase was induced | 120 s | rapidly regenerated from the photo-uncaging of ABA-DMNB within a min | cannot efficiently uncage | ≤ 2 min | near equal amount | higher percentage of ruffled cell; also recorded: greater percentage of cells displaying ruffling | – | – | – | – | – |
| CC1=CC(=O)CC(C)(C)C1(O)/C=C/C(C)=C\C(=O)O (stereo not drawn) [ABA, abscisic acid, reference compound] | – | – | – | – | – | – | – | very little 2-trans isomer was produced | – | induced luciferase expression | higher percentage of ruffled cell; also recorded: greater percentage of cells displaying ruffling | – | – | – |
| CCN(CC)c1ccc2c(COC(=O)/C=C(C)\C=C\[C@@]3(O)C(C)=CC(=O)CC3(C)C)cc(=O)oc2c1 [ABA-DEACM] | stable chemically and in cell culture | – | – | – | cannot be cleaved effectively under 365 nm light; also recorded: cannot be cleaved efficiently by 365 nm light | cleaved rapidly to give ABA within a few minutes | – | – | – | – | – | ≤ 4 min | isomerized ABA was also produced | Rac1 signaling activation/ruffle formation in cells |
